According to patent US9539223B2, “Methods for treating bacterial infections” (Neoculi Pty Ltd., priority 2013, dated 2017):
In brackets after ≈: the same amount, converted by molar mass. Several values for one entry are separate records, joined by “and”; a condition that tells them apart may be missing. Equal values may be shown once.

Experiments:
[1] = test system: vancomycin-resistant Enterococcus spp. (VRE); assay: Minimum inhibitory concentration assay (CLSI), VRE isolates; type: cell-based
Description: Minimum inhibitory concentration tests were performed according to CLSI Standards (CLSI 2008). […] The solutions were then serially diluted across the row, leaving 2 columns for positive and negative controls. A bacterial suspension was prepared by adding fresh colonies obtained from an overnight culture on Sheep Blood Agar (SBA) to a 9.1 g/L saline solution. This suspension was adjusted to a concentration of between 4×10^8 and 5×10^8 CFU/mL. Concentration of the suspension was determined by measuring optical density (OD) using a spectrophotometer at a wavelength of 600 nm where the correct concentration was determined to have an optical density of between 1.00 and 1.20. One milliliter of this suspension was added to 9 mL of saline before being added to all wells, excluding the negative control wells, in 10 μL volumes giving a final concentration of between 4×10^5 and 5×10^5 CFU/mL in each well. The tests were then incubated for 24 hours at 37° C. and then assessed both visually and using OD readings from a microplate reader at a wavelength of 600 nm. These tests were performed in duplicate but repeated if discrepancies were observed.
The minimum inhibitory concentration (MIC) was determined to be the lowest concentration of antibiotic that prevented growth of bacteria both visually and using OD readings. […]

[2] = test system: RNA synthesis in S. aureus ATCC 29213; assay: RNA synthesis, [3H] uridine incorporation; type: cell-based, Staphylococcus aureus; conditions: 0.25 to 8-fold the MIC
Description: Cells were grown at 35° C. overnight on Trypticase Soy agar. A colony from the plate was used to inoculate 10 ml of Mueller Hinton broth II (MHBII), and the culture was grown to early exponential growth phase (OD600=0.2 to 0.3) while incubating in a shaker at 35° C. and 200 rpm.
When cells reached early exponential phase, 100 μl of culture was added to triplicate wells containing various concentrations of test compound or control antibiotics (5 μl) at 20× the final concentration in 100% DMSO. A 5% DMSO treated culture served as the “no drug” control for all experiments. Cells were added in MHBII at 105% to account for the volume of drug added to each reaction or in M9 minimal medium for protein synthesis reactions. Following 15 min incubation at room temperature, either [3H] thymidine (DNA synthesis), [3H] uridine (RNA synthesis) or [3H] leucine (protein synthesis) was added at 0.5-1.0 μCi per reaction, depending on the experiment. Reactions were allowed to proceed at room temperature for 15-30 min and then stopped by adding 12 μl of cold 5% trichloroacetic acid (TCA) or 5% TCA/2% casamino acids (protein synthesis only). […] After washing three times with 5 ml of cold 5% TCA, the filters were rinsed two times with 5 ml 100% ethanol, allowed to dry, and then counted using a Beckman LS3801 liquid scintillation counter.

[3] = test system: S. aureus ATCC 49775; assay: Time-kill assays; type: cell-based, Staphylococcus aureus
Description: Bactericidal activity in macrodilution assays was identified as a 3-log10 decrease from the initial inoculum size. Bacteria were cultured overnight at 37° C. on SBA. Colonies were suspended in broth and the turbidity was adjusted to a 0.5 McFarland standard to obtain a bacterial suspension of ˜10^5-CFU/ml. Bacterial suspensions were incubated at 37° C. with shaking. Aliquots were removed at 0-, 1-, 2-, 4-, 8-, 12-, and 24-h after antimicrobial addition, diluted, plated onto SBA and incubated for 48-h at 37° C. for viable count determination. Turbidimetric growth curves for S. aureus were obtained for Microtiter plate assays by monitoring optical density changes using a Bio-Rad Benchmark Plus microplate spectrophotometer at 600 nm. Optical densities were measured at 0-, 1-, 2-, 4-, 8-, 12, and 24-h after antimicrobial addition.

[4] = test system: S. pneumoniae strain D39; assay: MBC time kill studies (relative MBC at time points); type: cell-based, Streptococcus pneumoniae
Excerpt: MBC kill kinetics assays involved the preparation of three 96-well microtitre trays.

[5] = test system: Staphylococcus pseudintermedius; assay: MIC testing (CLSI), S. pseudintermedius isolates; type: cell-based
[6] = test system: Staphylococcus spp. Strain MK1; assay: Checkerboard synergy study, Staphylococcus spp. MK1; type: cell-based
Description: Firstly, the MIC of each antibiotic alone was determined in accordance to CLSI standard guidelines.
According to the checkerboard guidelines, Synergy (S) was defined as an FICI<0.5. No effect (NE) was defined as 0.5<FICI<4. Antagonism (A) was defined as a 4<FICI.

N=C(N/N=C/c1ccc(Cl)cc1)N/N=C/c1ccc(Cl)cc1 [NCL812, 1,2-bis[(E)-(4-chlorophenyl)methylideneamino]guanidine]
MIC50 [1]: 4 µg/mL (≈ 12 µM) | MIC90 [1]: 4 µg/mL (≈ 12 µM) | inhibition of RNA synthesis [2]: very similar to the DNA synthesis study | growth in microdilution assay ([3]; 1× and 4× the MIC, up to 24-h): no visible bacterial growth | remained bactericidal until ([3]; 10-ml macrodilution, 1× and 4× the MIC, after antimicrobial addition): 8 to 12 h | bacterial regrowth observed at ([3]; after antimicrobial addition): 12 h | susceptibility of test bacteria after time-kill exposure ([3]; following harvesting, washing and MIC testing): remained susceptible | consistent bactericidal effect elicited after ([4]; from initial exposure, relative MBC over 48 hr): 6 h | decrease in MBC ([4]; within 5 hrs): ~3 fold | MIC50 ([5]; Staphylococcus pseudintermedius, 23 S. pseudintermedius isolates): 2 µg/mL (≈ 5.98 µM) | susceptibility based on MICs ([5]; all 23 isolates (MSSP and MRSP)): susceptible | MIC ([6]; read-out: NCL812 MIC Alone, Staphylococcus spp. Strain MK1): 2 µg/mL | NCL812 MIC With Antibiotic ([6]; with Penicillin G): 2 µg/mL | NCL812 MIC With Antibiotic ([6]; with Sulfamethoxazole): 1 µg/mL and 2 µg/mL
